From patent US6878701B2, “Potassium channel blocking agents” (Neurosearch A/S, priority 1999, dated 2005)

Target: T1, small-conductance Ca2+-activated K+ channels (SK channels, isoform 2) (Rattus norvegicus, UniProt P70604)
T1 construct: expressed in transfected cells; host or cells: HEK293
Experiment: Whole-cell patch-clamp recording of SK channel current in stably transfected HEK293 cells
Type: cell-based
Conditions: rat SK2 stably expressed in HEK293 cells, room temperature, IC50 = Koff/Kon from kinetics of the block, read-out: biological activity determined as IC50
Description: In this experiment. small-conductance Ca^2+-activated K^+ channels (SK channels, isoform 2) cloned from a rat cDNA library were stably expressed in HEK293 cells using standard procedures. The ionic current through the channels was recorded in the whole-cell mode of the patch-clamp technique.
Cells plated on coverstips are placed in a 15 μl perfusion chamber (flowrate ˜1 ml/min), mounted on a IMT-2 microscope equipped with Nomarski or Hoffmann optics. The microscopes are placed on vibration-free tables in grounded Faraday cages.
All experiments are performed at room temperature (20-22° C.). […] Data are stored directly on the harddisk and analysed by the IGOR software according to the manufacturer's instructions.
The whole-cell configuration of the patch clamp technique is applied. […] Cell capacitance is electronically compensated and the resistance between the pipette and the cell interior (the series resistance, Rs) is measured and compensated for. […]
In the experiments where the effect of channel activators is quantified (test 475), the intracellular (pipette) solution has the following composition (concentration in mM):
The calculated free concentration of Ca^2+ in this solution is 100 nM, and that of Mg^2+ is 1 mM. In these experiments, the concentration of CaCl2 is 7.6 mM and that of MgCl2 is 1.2 mM to give calculated free concentrations of 300 nM and 1 mM, respectively. […]

Molecule CN1CCN(C)c2nc(c3ccccc3n2)NCC2CCCC(CNc3nc1nc1ccccc31)C2 [Compound 2, 20,23-dimethyl-2,10,18,20,23,25,32,33-octaazahexacyclo [22.7.1.1^4.8.1^11,19.0^12,17.0^26,31] tetratriaconta-1(32).11,13,15,17,19(33),24,26,28,30-decaene] has an IC50 of under 1000 nM.
